Data reported in ChEMBL document CHEMBL3785073, “Antiviral Indolosesquiterpenoid Xiamycins C-E from a Halophilic Actinomycete” (J Nat Prod, 2016).
Calls of active or inactive are those of the source. The rule behind the calls is not given here.

Tests used:
[1] = system: Porcine epidemic diarrhea virus; assay: Antiviral activity against PEDV infected in African green monkey Vero cells assessed as reduction in virus-induced cytopathic effect after 72 hrs by MTT assay; format: functional, cell-based
[2] = Cytotoxicity against African green monkey Vero cells after 48 hrs by MTT assay; format: cell-based; conditions: chlorocebus sabaeus
[3] = Selectivity index, ratio of CC50 for African green monkey Vero cells to EC50 for PEDV infected in African green monkey Vero cells
[4] = system: Porcine epidemic diarrhea virus; assay: Antiviral activity against PEDV infected in African green monkey Vero cells assessed as suppression of GP2 spike protein expression at 5 uM after 24 hrs by Western blot analysis; format: functional, cell-based
[5] = system: Porcine epidemic diarrhea virus; assay: Antiviral activity against PEDV infected in African green monkey Vero cells assessed as suppression of GP2 spike protein mRNA level after 24 hrs by RT-PCR analysis; format: functional, cell-based
[6] = system: Porcine epidemic diarrhea virus; assay: Antiviral activity against PEDV infected in African green monkey Vero cells assessed as suppression of GP6 neucleocapsid protein expression at 10 uM after 24 hrs by FITC-based immunofluorescence assay; format: functional, cell-based
[7] = system: Porcine epidemic diarrhea virus; assay: Antiviral activity against PEDV infected in African green monkey Vero cells assessed as suppression of GP6 neucleocapsid protein mRNA level after 24 hrs by RT-PCR analysis; format: functional, cell-based
[8] = system: Porcine epidemic diarrhea virus; assay: Antiviral activity against PEDV infected in African green monkey Vero cells assessed as suppression of GP2 spike protein expression after 24 hrs by Western blot analysis; format: functional, cell-based
[9] = system: Porcine epidemic diarrhea virus; assay: Antiviral activity against PEDV infected in African green monkey Vero cells assessed as suppression of GP5 neucleocapsid protein mRNA level after 24 hrs by RT-PCR analysis; format: functional, cell-based
[10] = system: Porcine epidemic diarrhea virus; assay: Antiviral activity against PEDV infected in African green monkey Vero cells assessed as suppression of GP6 neucleocapsid protein expression after 24 hrs by FITC-based immunofluorescence assay; format: functional, cell-based
[11] = system: Porcine epidemic diarrhea virus; assay: Antiviral activity against PEDV infected in African green monkey Vero cells assessed as suppression of GP6 neucleocapsid protein expression after 24 hrs by Western blot analysis; format: functional, cell-based

Row | SMILES | EC50 [1] [µM] | CC50 at 48 h [2] [µM] | Ratio CC50/EC50 [3] | Activity [4] | Activity [5] | Activity [6] | Activity [7] | Activity [8] | Activity [9] | Activity [10] | Activity [11]
1 | C[C@@]1(C(=O)O)[C@@H](O)CC[C@]2(C)c3cc4c(cc3CC[C@@H]12)[nH]c1ccccc14 [XIAMYCIN] | 20.1 | 138 | 7 | – | – | – | – | – | – | – | –
2 | COC(=O)[C@]1(C)[C@@H](O)CC[C@]2(C)c3cc4c(cc3C(=O)C[C@@H]12)[nH]c1ccccc14 | 2.89 | 98.7 | 34.63 | Active | Active | – | – | – | – | – | –
3 | C[C@@]1(C(=O)O)[C@@H](O)CC[C@]2(C)c3cc4c([nH]c5ccccc54)c(Cl)c3CC[C@@H]12 | 12.8 | 162 | 12.89 | – | – | – | – | – | – | – | –
4 | COC(=O)[C@]1(C)[C@@H](O)CC[C@]2(C)c3cc4c(cc3CC[C@@H]12)[nH]c1ccccc14 | 5.69 | 103 | 18.09 | – | – | – | – | – | – | – | –
5 | C[C@@]1(C(=O)O)[C@@H](O)CC[C@]2(C)c3cc4c(cc3[C@@H](O)C[C@@H]12)[nH]c1ccccc14 | 11.5 | 76.9 | 6.75 | – | – | – | – | – | – | – | –
6 | O=c1cnn([C@@H]2O[C@H](CO)[C@@H](O)[C@H]2O)c(=O)[nH]1 [6-AZAURIDINE] | 4.48 | 57.3 | 12.7 | Active | – | Active | – | – | – | – | –
7 | COC(=O)[C@]1(C)[C@@H](O)CC[C@]2(C)c3cc4c(cc3[C@@H](O)C[C@@H]12)[nH]c1ccccc14 | 0.93 | 56 | 60.31 | Dose-dependent effect | Dose-dependent effect | – | Dose-dependent effect | Dose-dependent effect | Dose-dependent effect | Dose-dependent effect | Dose-dependent effect
